The values that follow come from patent US6716596B2, “Agents for replacement of NAD+/NADH system in enzymatic reactions” (The Regents of the University of California, priority 2001, dated 2004).

A short description of series [1]: competitive regioselective substrate reduction experiments with rhodium catalyst precursor (2). As to the method:
In order to establish whether the σ-donating ability or the electron-withdrawing effect of the 3-substituent of the 1-benzylnicotinamide was the important parameter, several competitive substrate reduction experiments were performed.
For this purpose, the compound (1a) 1-benzylnicotinamide, was reduced with rhodium catalyst precursor (2) in the presence of its alternatively substituted derivatives, compounds (1e), substituted with —C(O)—CH3, (1g), substituted with (—CN), (1d), substituted with —C(S)NH2 or (1f), substituted with —C(O)OCH3, and their competitive reduction was determined.

Series [2] can be described thus: UV-vis kinetics of the regioselective reduction with rhodium catalyst precursor (2) and formate. To be noted: for kcat rate constant for catalysis / r1 initial rate: [2] 2.725 × 10^−5 M, 299° K. The text has this: The kinetics of the regioselective reduction reactions were further studied utilizing UV-vis techniques with the two biomimic compounds (1) and (6) and the results were compared to NAD^+ itself. Experimental conditions are described in Example 9.
The effect of the initial rate (ri) at low conversions to the 1,4-dihydro product (˜10%) was ascertained by varying the amount of substrate precatalyst (2) and sodium formate concentrations.
The initial rates (ri) of formation of compound (3) were obtained from plots of concentration (absorbance at 354 nm/ε) versus time at low conversions (˜10%). The values of kcat were calculated at 299° K.
Rates were obtained via UV-vis techniques and are an average of two runs.
This example describes studies producing kinetic and thermodynamic data for 1-benzylnicotinamide triflate (1a) performed in THF/H2O, 1:1, β-nicotinamide -5′-ribose methyl phosphate (6) H2O, pH=6.5, and NAD^+ performed in the regioselective reduction with [Cp*Rh(bpy)H2O)][OTf]2, 2 and in the presence of formate ion.
The kinetic experiments were carried out on a Hewlett Packard 8452A Diode Array Uv-Vis spectrophotometer, attached to a circulating water bath (VWR 1160). For experiments conducted at different temperatures, the circulating water bath, as well as the UV-vis instrument, were warmed up for at least an 1 hour before the kinic studies were initiated.
The 1-benzylnicotinamide triflate (1a) [CP*Rh(bpy)(H2O)][OTf]2 (2) and 1-benzyl-1,4 dihydronicotinamide (3) were synthesized by methods as described in Examples 2, 4 and 7. The NAD^+ and 1,4-NADH compounds were purchased from Sigma and used as received. The THF was distilled from Na and deoxygenate with N2 gas for 1 hour. Distilled water was purchased from Aldrich Chemical Co and deoxygenate prior to being used. A solution of THF/H2O (similar for 1:1 or 1:4 ratios) was used for all the kinetic experiments performed for compounds of 1-benzylnicotinamide type, unless otherwise specified. A stock solution of biomimic (1a) (0.018 M), 2 (6.23×10^−3 M), and sodium formate (0.25 M) were made for the kinetic experiments in THF/H2O (1:1).
A solution of 1-benzylnicotinamide triflate (1a), (4.29×10^−3 M) and sodium formate (0.0539) was made in a volumetric flask (10 mL) under N2 in a THF/H2O (1:1) mixture. The different concentration of biomimic (1a) and sodium formate used for the kinetic experiments are reported above.
A 3.0 mL aliquot of this solution was transferred to a thermostated UV-vis cell by using an air-free syringe, which was also purged with N2 gas. The sample was then brought to the desired temperature for 30-60 min in the UV-vis spectrophotometer thermostated cell holder. Then, 23 μL of a 6.23×10^−3 M stock solution of [CP*Rh(bpy)(H2O)^2+ (2), was added-by syringe under a positive N2 pressure, quickly mixed with the solution, and the absorbance increase at 354 nm was immediately recorded. The experiment was carried out for 2 hours and the formation of the product, 1-benzyl-1,4-dihydronicotinamide, (3) was followed, with the change in absorbance being recorded every 90 seconds. Some kinetic experiments were carried out until all the starting material was converted to product. The induced volume change was taken into account for the calculation of the turnover frequency (TOF).
The kinetic experiments for the β-nicotinamide-5′-ribose methyl phosphate (6) and natural NAD^+ were performed using the same general procedure described above. These kinetic experiments were carried out in H2O and the concentration of β-nicotinamide-5′-ribose methyl phosphate (6) or NAD^+, sodium formate, and [Cp*Rh(bpy)(H2O)]^2+ (2), were in the order of 1.50×10^−3, 0.0186 M, and 1.42×10^−5 M, respectively. The λmax for the β-nicotinamide-5′-ribose methyl phosphate, (6), and natural NAD^+ was 336 nm. In all the initial rate plots, time =0 s was removed from the plots of Concentration versus Time. The standard deviation of the ri were calculated from 2σ values.

In series [3] the target is T1, horse liver alcohol dehydrogenase (HLADH) (Equus caballus, UniProt P00327).
T1 construct: purchased Sigma
The series is described as follows: HLADH enzymatic chiral reduction of ketones with biomimic co-factor regeneration. The class given is biochemical. As for the experimental part:
FIG. 7 presents structures of ketone substrates 12-15 used for biomimic chiral synthesis of corresponding alcohols. Conversion of the substrates 12-15 to their corresponding alcohols are expressed in % yield, and TOF in d^−1 and S-enantiomer excess (ee) are also shown for each conversion. Corresponding values obtained with NAD^+ are given in parenthesis. The S-enantiomeric excess (ee) was determined by GLC with a modified β-cyclodextrin capillary column.
[Cp*Rh(bpy)(H2O)]OTf2 (1.9 mg, 2.61×10^−3 mmol), sodium formate (17.8 mg, 261.69×10^−3 mmol), NAD^+ (8.1 mg, 11.23×10^−3 mmol) and HLADH (10 units) were placed in a 10 mL Schlenk flask, and Schlenk techniques were followed to deoxygenate the solid mixture.
Under positive argon pressure, 5 mL of potassium phosphate buffer (100 mM, pH=7.02, deoxygenated) and carbonyl substrate (83.58×10^−3 mmol, deoxygenated) were added via syringe. The reaction flask was immediately securely capped with a glass-stopper and shaken with a shaker in 30° C. water-bath. The reaction was monitored by gas chromatography (GC), equipped with a β-cyclodextrin column (Supelco, β-DEX-225), and the products were identified by comparing the retention time with the corresponding authentic chiral samples and were confirmed by GC-MS. The enantiomeric excess of the products was determined directly by their relative area in the chromatogram. The progress of the reaction was obtained by mixing the reaction aliquot with an internal standard (cyclohexanol in phosphate buffer), and then calibrating the measured relative area in the chromatogram with their corresponding response factors. The reaction was monitored for 24 hours.
The same procedure as described in section A was followed, except that NAD^+ was substituted with any one of the biomimic compounds of the invention.

The nature of series [4]: stability observations (light, air, solvent). Format: physicochemical.
[5] abbreviates: [1a] 1.07 × 10^−3 M, HCO2Na 0.03266 M, 1:1 H2O/THF.
Where [6] appears, read: [1a] 1.61 × 10^−3 M, HCO2Na 0.03260 M, 1:1 H2O/THF.
[7] abbreviates: [1a] 2.68 × 10^−3 M, HCO2Na 0.03266 M, 1:1 H2O/THF.
The mark [8] stands for this setting: [1a] 2.68 × 10^−4 M, HCO2Na 0.03266 M, 1:1 H2O/THF.
Where [9] appears, read: [1a] 5.37 × 10^−4 M, HCO2Na 0.03259 M, 1:1 H2O/THF.

Structures can show the parent of a compound that is named as a salt.

T1 sequence (P00327 2-375 limits assumed): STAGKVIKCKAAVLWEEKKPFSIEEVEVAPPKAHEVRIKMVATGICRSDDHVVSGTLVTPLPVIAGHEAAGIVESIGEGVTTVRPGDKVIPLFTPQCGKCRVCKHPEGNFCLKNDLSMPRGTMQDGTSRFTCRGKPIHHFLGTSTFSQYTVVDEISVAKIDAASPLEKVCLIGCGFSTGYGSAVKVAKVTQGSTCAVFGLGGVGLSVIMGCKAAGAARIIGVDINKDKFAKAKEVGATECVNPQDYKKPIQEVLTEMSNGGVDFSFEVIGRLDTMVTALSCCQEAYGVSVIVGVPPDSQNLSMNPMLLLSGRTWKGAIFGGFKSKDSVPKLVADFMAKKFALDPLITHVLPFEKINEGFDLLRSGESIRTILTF

On to `NC(=O)c1ccc[n+](Cc2ccccc2)c1` [Compound 1a, 1-Benzylnicotinamide, Triflate Salt], for which, in series [1] (competitive reduction of (1a) with (1e)), the “times faster than the —C(O)CH3 analog (1e)” value came to 1.1 times. Besides, in series [1] (competitive reduction of (1a) with (1g)), the “times faster than the —CN analog (1g)” value came to 1.3 times. Moreover, the TOF in series [2] (294° K, 1:1 H2O/THF, substrate 4.29 × 10^−3 M) turned out to be 2 h⁻¹; in series [2] (H2O/THF 1:1, 1a 4.29 × 10^−3 M), 2 h⁻¹; in series [2] (H2O/THF 4:1, 1a 1.68 × 10^−3 M), 10 h⁻¹; in series [2] (H2O/THF 4:1, 1a 4.82 × 10^−3 M), 13 h⁻¹. The ri initial rate in series [2] (294° K, 1:1 H2O/THF, substrate 4.29 × 10^−3 M, HCO2Na 5.39 × 10^−2 M, (2) 4.33 × 10^−5 M) is 1.23e-08 M/s; in series [2] (H2O/THF 1:1, 1a 4.29 × 10^−3 M, HCO2Na 5.39 × 10^−2 M, (2) 4.33 × 10^−5 M), 1.23e-08 M/s; in series [2] (H2O/THF 4:1, 1a 1.68 × 10^−3 M, HCO2Na 1.79 × 10^−3 M, (2) 1.71 × 10^−5 M), 4.31e-08 M/s; in series [2] (H2O/THF 4:1, 1a 4.82 × 10^−3 M, HCO2Na 5.52 × 10^−2 M, (2) 4.83 × 10^−5 M), 1.75e-07 M/s. Besides, the “increase in initial rate of formation of the 1,4-dihydro derivative (3a), factor” value in series [2] (THF/H2O from 1:1 to 1:4, comparable concentrations) was over 6. Also, the “kcat rate constant for catalysis” value stood at 12.61 M^−2s^−1 in series [2] (setting [5]); 14.03 M^−2s^−1 in series [2] (setting [6]); 14.38 M^−2s^−1 in series [2] (setting [7]); 8.85 M^−2s^−1 in series [2] (setting [8]); 13.02 M^−2s^−1 in series [2] (setting [9]). In addition, the r1 initial rate in series [2] (setting [5]) amounted to 1.2e-08 M/s; in series [2] (setting [6]), 2.01e-08 M/s; in series [2] (setting [7]), 3.43e-08 M/s; in series [2] (setting [8]), 2.1e-09 M/s; in series [2] (setting [9]), 6.3e-09 M/s. Also, the “recognition by HLADH as hydride catalyst of the chiral conversion” value in series [3] is recorded as “recognizes”. In addition, in series [3] (ketone (12) reduced by HLADH with co-factor regeneration, 24 hours), the “turnover frequency of chiral ketone reduction” value was about 30 day⁻¹. For the same molecule, the stability result in series [4] is on record as “more stable in acqueous/organic solvent”.
